Data as given in patent publication US6737383B1, “Herbicidal oxadiazolidines” (priority 1999, dated 2004).

How the values were obtained:
[1] = system: bedstraw; experiment: Test B pre/postemergence bedstraw; format: in vivo, Galium aparine
Method in brief: (§1)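 Response is a visual 0-to-10 score relative to untreated plants, where 0 means no effect and 10 means complete control, taken twelve to sixteen days after application. Treatments went onto soil at planting and onto foliage of 1- to 4-leaf plants, using a surfactant-containing non-phytotoxic solvent.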

[2] = system: blackgrass; experiment: Test B pre/postemergence blackgrass; format: in vivo, Alopecurus myosuroides
Method in brief: as §1

[3] = system: surinam grass; experiment: Test B pre/postemergence surinam grass; format: in vivo, Brachiaria decumbens
Method in brief: as §1

[4] = system: cocklebur; experiment: Test B pre/postemergence cocklebur; format: in vivo, Xanthium strumarium
Method in brief: as §1

[5] = system: corn; experiment: Test B pre/postemergence corn; format: in vivo, Zea mays
Method in brief: as §1

[6] = system: crabgrass; experiment: Test B pre/postemergence crabgrass; format: in vivo, Digitaria sanguinalis
Method in brief: as §1

[7] = system: giant foxtail; experiment: Test B pre/postemergence giant foxtail; format: in vivo, Setaria faberii
Method in brief: as §1

[8] = system: morningglory; experiment: Test B pre/postemergence morningglory; format: in vivo, Ipomoea hederacea
Method in brief: as §1

[9] = system: pigweed; experiment: Test B pre/postemergence pigweed; format: in vivo, Amaranthus retroflexus
Method in brief: as §1

[10] = system: rape; experiment: Test B pre/postemergence rape; format: in vivo, Brassica napus
Method in brief: as §1

[11] = system: sugar beet; experiment: Test B pre/postemergence sugar beet; format: in vivo, Beta vulgaris
Method in brief: as §1

[12] = system: wheat; experiment: Test B pre/postemergence wheat; format: in vivo, Triticum aestivum
Method in brief: as §1

[13] = system: wild oat; experiment: Test B pre/postemergence wild oat; format: in vivo, Avena fatua
Method in brief: as §1

[14] = system: purple nutsedge; experiment: Test B pre/postemergence purple nutsedge; format: in vivo, Cyperus rotundus
Method in brief: as §1

[15] = system: rice; experiment: Test B flood test rice; format: in vivo, Oryza sativa
Method in brief: (§2)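 Plants were grown to the 2-leaf stage before treatment with test chemical, then held in a greenhouse for twelve to sixteen days. Injury was visually rated against untreated controls on a 0–10 scale, where 0 is no effect and 10 is complete control.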

[16] = system: bamyardgrass; experiment: Test B flood test barnyardgrass; format: in vivo, Echinochloa crus-galli
Method in brief: as §2

[17] = Preemergence, Rate 62 g/ha, scale of 0 to 10 where 0 is no effect and 10 is complete control
[18] = Preemergence, Rate 250 g/ha, scale 0 to 10, 0 is no effect, 10 is complete control
[19] = Preemergence, Rate 500 g/ha, scale 0 to 10 (0 no effect, 10 complete control)
[20] = Rate 62 g/ha, Postemergence, scale of 0 to 10 where 0 is no effect and 10 is complete control
[21] = Rate 125 g/ha, Postemergence, scale 0 to 10
[22] = Rate 500 g/ha, Postemergence, scale 0 to 10
[23] = Preemergence, Rate 125 g/ha, 0 is no effect, 10 is complete control
[24] = Rate 62 g/ha, headed Pre-emergence (flood test species), scale 0 to 10 (0 no effect, 10 complete control)
[25] = Rate 125 g/ha, Pre-emergence, flood test species, scale 0 to 10 where 0 is no effect and 10 is complete control
[26] = Rate 250 g/ha, Pre-emergence, flood-test species, scale 0 to 10, 0 is no effect, 10 is complete control
[27] = Rate 500 g/ha, headed Pre-emergence (flood test species), scale 0 to 10 (0 no effect, 10 complete control)

CCN(C(=O)n1oc(=O)n(C(C)C)c1=O)c1nncs1 [Compound 190]
Bedstraw plant response rating [1, 17]: 0 | Bedstraw plant response rating [1, 18]: 0 | Bedstraw plant response rating [1, 19]: 4 | Bedstraw plant response rating [1, 20]: 0 | Bedstraw plant response rating [1, 21]: 0 | Plant response rating (0 to 10; 0 is no effect, 10 is complete control), Bedstraw ([1]; Rate 250 g/ha, Postemergence): 0 | Bedstraw plant response rating [1, 22]: 0 | Blackgrass plant response rating [2, 17]: 0 | Blackgrass plant response rating (0 to 10 scale) [2, 23]: 0 | Blackgrass plant response rating [2, 18]: 0 | Blackgrass plant response rating [2, 19]: 3 | Blackgrass plant response rating [2, 20]: 0 | Blackgrass plant response rating [2, 21]: 0 | Plant response rating (0 to 10; 0 is no effect, 10 is complete control), Blackgrass ([2]; Rate 250 g/ha, Postemergence): 0 | Blackgrass plant response rating [2, 22]: 0 | B. signalgrass plant response rating [3, 17]: 0 | B. signalgrass plant response rating (0 to 10 scale) [3, 23]: 0 | B. signalgrass plant response rating [3, 18]: 0 | B. signalgrass plant response rating [3, 19]: 0 | B. signalgrass plant response rating [3, 20]: 0 | B. signalgrass plant response rating ([3]; Rate 125 g/ha, Postemergence, scale 0 (no effect) to 10 (complete control)): 0 | Plant response rating, B. signalgrass ([3]; Rate 250 g/ha, Postemergence, scale 0 to 10, 0 is no effect, 10 is complete control): 0 | B. signalgrass plant response rating ([3]; Rate 500 g/ha, Postemergence, scale 0 to 10, 0 no effect, 10 complete control): 0 | Cocklebur plant response rating [4, 17]: 0 | Cocklebur plant response rating (0 to 10 scale) [4, 23]: 0 | Cocklebur plant response rating [4, 18]: 0 | Cocklebur plant response rating [4, 19]: 0 | Cocklebur plant response rating [4, 20]: 0 | Cocklebur plant response rating [4, 21]: 0 | Plant response rating (0 to 10; 0 is no effect, 10 is complete control), Cocklebur ([4]; Rate 250 g/ha, Postemergence): 0 | Cocklebur plant response rating [4, 22]: 0 | Corn plant response rating [5, 17]: 0 | Corn plant response rating (0 to 10 scale) [5, 23]: 0 | Corn plant response rating [5, 18]: 0 | Corn plant response rating [5, 19]: 0 | Corn plant response rating [5, 20]: 0 | Corn plant response rating [5, 21]: 0 | Plant response rating (0 to 10; 0 is no effect, 10 is complete control), Corn ([5]; Rate 250 g/ha, Postemergence): 0 | Corn plant response rating [5, 22]: 0 | Crabgrass plant response rating [6, 17]: 0 | Crabgrass plant response rating (0 to 10 scale) [6, 23]: 0 | Crabgrass plant response rating [6, 18]: 0 | Crabgrass plant response rating [6, 19]: 0 | Crabgrass plant response rating [6, 20]: 0 | Crabgrass plant response rating [6, 21]: 0 | Plant response rating (0 to 10; 0 is no effect, 10 is complete control), Crabgrass ([6]; Rate 250 g/ha, Postemergence): 0 | Crabgrass plant response rating [6, 22]: 0 | Giant foxtail plant response rating [7, 17]: 0 | Giant foxtail plant response rating (0 to 10 scale) [7, 23]: 0 | Giant foxtail plant response rating [7, 18]: 0 | Giant foxtail plant response rating [7, 19]: 0 | Giant foxtail plant response rating [7, 20]: 0 | Giant foxtail plant response rating [7, 21]: 0 | Plant response rating (0 to 10; 0 is no effect, 10 is complete control), Giant foxtail ([7]; Rate 250 g/ha, Postemergence): 0 | Giant foxtail plant response rating [7, 22]: 0 | Morningglory plant response rating [8, 17]: 0 | Morningglory plant response rating (0 to 10 scale) [8, 23]: 0 | Morningglory plant response rating [8, 18]: 0 | Morningglory plant response rating [8, 19]: 0 | Morningglory plant response rating [8, 20]: 0 | Morningglory plant response rating [8, 21]: 0 | Plant response rating (0 to 10; 0 is no effect, 10 is complete control), Morningglory ([8]; Rate 250 g/ha, Postemergence): 0 | Morningglory plant response rating [8, 22]: 0 | Redroot pigweed plant response rating [9, 17]: 0 | Redroot pigweed plant response rating (0 to 10 scale) [9, 23]: 0 | Redroot pigweed plant response rating [9, 18]: 0 | Redroot pigweed plant response rating [9, 19]: 0 | Redroot pigweed plant response rating [9, 20]: 0 | Redroot pigweed plant response rating [9, 21]: 0 | Plant response rating (0 to 10; 0 is no effect, 10 is complete control), Redroot pigweed ([9]; Rate 250 g/ha, Postemergence): 0 | Redroot pigweed plant response rating [9, 22]: 0 | Rape plant response rating [10, 17]: 0 | Rape plant response rating (0 to 10 scale) [10, 23]: 0 | Rape plant response rating [10, 18]: 0 | Rape plant response rating [10, 19]: 0 | Rape plant response rating [10, 20]: 0 | Rape plant response rating [10, 21]: 0 | Plant response rating (0 to 10; 0 is no effect, 10 is complete control), Rape ([10]; Rate 250 g/ha, Postemergence): 0 | Rape plant response rating [10, 22]: 0 | Sugarbeets plant response rating [11, 17]: 0 | Sugarbeets plant response rating (0 to 10 scale) [11, 23]: 0 | Sugarbeets plant response rating [11, 18]: 0 | Sugarbeets plant response rating [11, 19]: 0 | Sugarbeets plant response rating [11, 20]: 0 | Sugarbeets plant response rating [11, 21]: 0 | Plant response rating (0 to 10; 0 is no effect, 10 is complete control), Sugarbeets ([11]; Rate 250 g/ha, Postemergence): 0 | Sugarbeets plant response rating [11, 22]: 0 | Wheat plant response rating [12, 17]: 0 | Wheat plant response rating [12, 18]: 0 | Wheat plant response rating [12, 19]: 0 | Wheat plant response rating [12, 20]: 0 | Wheat plant response rating [12, 21]: 0 | Plant response rating (0 to 10; 0 is no effect, 10 is complete control), Wheat ([12]; Rate 250 g/ha, Postemergence): 0 | Wild oats plant response rating [13, 17]: 0 | Wild oats plant response rating [13, 18]: 0 | Wild oats plant response rating [13, 19]: 0 | Wild oats plant response rating [13, 20]: 0 | Wild oats plant response rating [13, 21]: 0 | Plant response rating (0 to 10; 0 is no effect, 10 is complete control), Wild oats ([13]; Rate 250 g/ha, Postemergence): 0 | Nutsedge plant response rating [14, 17]: 0 | Nutsedge plant response rating [14, 18]: 0 | Nutsedge plant response rating [14, 19]: 0 | Nutsedge plant response rating [14, 20]: 0 | Nutsedge plant response rating [14, 21]: 0 | Plant response rating (0 to 10; 0 is no effect, 10 is complete control), Nutsedge ([14]; Rate 250 g/ha, Postemergence): 0 | Nutsedge plant response rating [14, 22]: 0 | Rice plant response rating [15, 24]: 0 | Rice plant response rating [15, 25]: 0 | Rice plant response rating [15, 26]: 0 | Plant response rating, Rice [15, 27]: 0 | Barnyardgrass plant response rating [16, 24]: 0 | Barnyardgrass plant response rating [16, 25]: 0 | Barnyardgrass plant response rating [16, 26]: 0 | Plant response rating, Barnyardgrass [16, 27]: 0
